Results: patent publication US20110207817A1, “ANTI-INFLAMMATORY COMPOUNDS AND COMPOSITIONS THEREOF” (priority 2008, published 2011)

Experiments:
Type in all cases: cell-based
[1] = system: Mouse macrophage Raw 264.7 cells; test: LPS-induced PGE2 release from Raw 264.7 cells (Example 4)
Method: (§1) In the presence and absence of sodium propyl paraben, mouse macrophage cells (RAW 264.7) and human gingival cells (HGF) were stimulated with LPS and the levels of inflammatory mediators Prostaglandin E2 (PGE2) and interleukin 8 (IL-8) in the cell supernatants were measured. While LPS administration increased the secretion of inflammatory mediators, sodium propyl paraben decreased LPS induced secretion of these mediators in a dose dependent manner. Sodium propyl paraben was identified as a novel anti-inflammatory agent, inhibiting the secretion of inflammatory mediators from both leukocytes and gingival fibroblasts. Mouse macrophage Raw 264.7 cells and human gingival fibroblast HGF cells were purchased from ATCC (Manassas, Va.) and ScienCell LLC (Carlsbad, Calif.), respectively. All of the culturing reagents were purchased from Mediatech (Manassas, Va.) unless otherwise stated. Both cell lines were cultured in a humidified incubator at 37° C. and in the presence of 5% CO2 and maintained in Dulbecco's Modified Eagle Medium (DMEM, 4.5 g/l glucose) supplemented with 10% Fetal Bovine Serum (FBS) and 1% penicillin-streptomycin. […] The level of PGE2 or IL-8 was analyzed using commercially available enzyme-linked immunosorbent assay (ELISA) kits (R&D Systems, Minneapolis, Minn.). […]

[2] = system: human gingival fibroblast HGF cells; test: LPS-induced PGE2 release from HGF cells (Example 4); conditions: 100 μg/ml, without LPS
Method: as §1

[3] = system: human gingival fibroblast HGF cells; test: LPS-mediated IL-8 production (Example 4)
Method: as §1

[4] = system: Human Gingival Fibroblast (HGF) cells; test: PGE2 release from LPS-irritated Human Gingival Fibroblast cells, neat solution (Example 1); conditions: for PGE2 Release (with LPS): 2 μg/mL P. gingivalis LPS, negative control without LPS = 100%
Method: For Examples 1 through 3, three sets of cell culture experiments were conducted in order to establish the anti-inflammatory efficacy of sodium propyl paraben. In all cases, in-vitro testing was conducted using Human Gingival Fibroblast cells suspended in low serum media. To irritate the cells, 2 μg/mL lipopolysaccharide (LPS) derived from P. gingivalis was added to the media. Sodium propyl paraben was added either directly to the media or incorporated into an adhesive matrix which was then suspended into the media by means of a permeable plastic insert. Cellular response was quantified by the presence of Prostaglandin E2 (PGE2), a cytokine associated with cellular irritation and inflammation, following an incubation period. Data is reported below after normalizing the level of PGE2 release of a negative control to “100%”. In-vitro testing was conducted using Human Gingival Fibroblast (HGF) cells that had been purchased from ScienCell (Carlsbad, Calif.). Prior to use, the cells had been grown in a 37° C. incubator with 5% CO2 and 95% humidity. Cells were maintained in high glucose Dulbecco's Modified Eagle's Medium (Mediatech, Manassas, Va.) with a 10% addition of heat inactivated Fetal Bovine Serum (Mediatech) and a 1% addition of Penicillin-Streptomycin 100× solution (Mediatech). Cells that had been previously frozen for long-term storage were allowed to recover/expand for at least one passage before being utilized for experimentation. To plate the cells, the maintenance medium was aspirated and the cells were washed with Hank's Balanced Salt Solution (Mediatech). Subsequently, the HBSS was aspirated and a trypsin-EDTA solution (Mediatech) was added to ensure that the cells released from the tissue culture plastic. Maintenance medium was reapplied and fractions of the solution containing the cells were transferred to a multi-well plate. After transfer, incubation was conducted to expand the cell population to 80% confluency. When the desired level of confluency was achieved, the maintenance medium was aspirated and one of several test solutions was added. For a negative control, a low serum medium was prepared that contained 0.5% of Fetal Bovine Serum (Mediatech) and 581.08 mg/L of L-gluatmine powder (Sigma-Aldrich, Milwaukee, Wis.) in DMEM High Glucose Media without Phenol Red and L-Glutamine (VWR Scientific, West Chester, Pa.). Low serum media were also prepared with the addition of 1, 10, or, 100 μg/mL of sodium propyl paraben (Sigma-Aldrich). […] An ELISA kit from R&D Systems (Minneapolis, Minn.) was used to quantify the release of PGE2 from the cells. […] The quantity of PGE2 reported by the assay was normalized by the percentage of viable cells or total protein. […]

SMILES	Induction of PGE2 by compound alone ([1]; 100 μg/ml, without LPS)	Induction of PGE2 by compound alone [2]	Induction of IL-8 by compound alone ([3]; 100 μg/ml, without LPS, either cell model)	LPS-elevated release of PGE2 ([1]; 1, 10 and 100 μg/ml, PG-LPS 2 μg/ml, FIG. 1A)	PGE2 Release (with LPS) ([4]; 1 μg/mL in low serum media) [%]	PGE2 Release (with LPS) ([4]; 10 μg/mL in low serum media) [%]	PGE2 Release (with LPS) ([4]; 100 μg/mL in low serum media) [%]	PGE2 Release (without LPS) ([4]; 100 μg/mL in low serum media, no LPS, negative control = 100%) [%]	LPS mediated IL-8 production ([3]; 1, 10 or 100 μg/ml, PG-LPS 2 μg/ml, FIG. 1C)
CCCOC(=O)c1ccc(O)cc1 [propyl paraben, propyl 4-hydroxybenzoate]	not observed	not observed	not observed						
CCCOC(=O)c1ccc(O)cc1.[Na] [Sodium Propyl Paraben, propyl 4-hydroxybenzoate, sodium salt]				reduced to basal level	124 ± 52	103 ± 23	84 ± 62	62 ± 37	reduced LPS mediated IL-8 production in a dose dependent manner
